Where “and” joins values, the source holds several entries; their conditions need not be identical. Equal values may be shown once. Read-outs that look alike come from different tables or passages of the source. Square brackets hold non-standard residues; d marks the D form. Peptide text beside a SMILES is read from it. * marks the point of attachment. AMC = Cc1cc(=O)oc2cc(N*)ccc12; Nle = CCCC[C@H](N)C(=O)O; Bz = O=C(c1ccccc1)*
Columns and labels:
NS2B/NS3 protease of YFV = conditions: cited from earlier work
[1] = system: NS2B/NS3 protease of DEN2; conditions: cited from earlier work
JEV NS2B(H)-NS3pro [2] = biological target: T1, JEV NS2B(H)-NS3pro (Japanese encephalitis virus, UniProt P32886, DEL1469-1493); experiment: Enzymatic activity assay with fluorogenic peptide substrates (Michaelis-Menten kinetics); type: biochemical; conditions: JEV protease
T1 construct: PCR-amplify the NS2B(H) region (amino acids 51–95 and 121–131); The N-terminal one-third (180 residues) of NS3 represents the protease domain NS3(pro); made in house; host or cells: E. coli (the text names both C41 and BL21), vector pTrcHisA

JEV NS2B(H)-NS3pro [3] = conditions: 25 mM NaCl; 100 µM Pyr-RTKR-amc, 0.5 µM enzyme, 50 mM Tris-HCl pH 9.5, 37°C
[4] = system: dengue virus NS3 protease; conditions: 100 mM NaCl; cited from earlier work
N2B-NS3 protease of WNV = conditions: cited from earlier work
MVEV NS2B-NS3 = conditions: cited from earlier work
WNV NS3 protease = conditions: cited from earlier work
JEV NS2B(H)-NS3pro [5] = experiment: Enzyme inhibition by aprotinin, Pyr-RTKR-amc substrate; type: biochemical, Japanese encephalitis virus; conditions: 0.5 µM enzyme, 50 mM Tris-HCl pH 9.5, 20% glycerol, aprotinin 0-20 µM, 37°C 30 minutes pre-incubation, 10 µM Pyr-RTKR-amc, triplicate
DEN2 NS3 protease = conditions: cited from earlier work

Which K m (NS2B/NS3 protease of YFV) does the source give for Cc1cc(=O)oc2cc(NC(=O)[C@H](CCCNC(=N)N)NC(=O)[C@H](CCCNC(=N)N)NC(=O)CNC(=O)OC(C)(C)C)ccc12 [Boc-GRR-amc] here?
Its K m is 142 µM.

What about the k cat (NS2B/NS3 protease of YFV) of the same compound?
The k cat was 0.034 s⁻¹.

What about the K m [1] of the same compound?
The K m was 150 µM.

And the k cat [1]?
Its k cat is 0.13 s⁻¹.

What about the “fold higher K m than Boc-LRR-amc” value (JEV NS2B(H)-NS3pro [2]) of the same compound?
Its value is 3 fold.

What about the “fold higher catalytic efficiency than Boc-LRR-amc” value (JEV NS2B(H)-NS3pro [2]) of the same compound?
The value was “about 10 fold”.

For CCCC[C@H](NC(=O)c1ccccc1)C(=O)N[C@@H](CCCCN)C(=O)N[C@@H](CCCNC(=N)N)C(=O)N[C@@H](CCCNC(=N)N)C(=O)Nc1ccc2c(C)cc(=O)oc2c1 [Bz-nKRR-amc] (Bz-[Nle]KRR-{AMC}), which “fold higher k cat/K m of benzoyl compared to acetyl group (Ac-nKRR-amc)” value (JEV NS2B(H)-NS3pro [2]) is on record?
Its value is “approximately 1.4 fold”.

Which “inhibition of cleavage of Pyr-RTKR-amc” value (JEV NS2B(H)-NS3pro [3]) does the source give for [Cl-].[Na+] [NaCl] here?
Its value is “about 50%”.

What about the “inhibition of the dengue virus NS3 protease” value [4] of the same compound?
Its value is 40–50%.

For Abz-(R)4SAGnY-amide, which “k cat/K m” value [1] is on record?
Its value is 11087 M⁻¹ s⁻¹.

Which K m (N2B-NS3 protease of WNV) does the source give for Pyr-RTKR-amc here?
Its K m is 71 µM.

What about the k cat (N2B-NS3 protease of WNV) of the same compound?
The k cat was 6.3 s⁻¹.

And the “k cat/K m” value (N2B-NS3 protease of WNV)?
Its value is 88000 M⁻¹ s⁻¹.

What about the k cat [1] of the same compound?
Its k cat is 0.02 s⁻¹ and 0.013 s⁻¹.

With aprotinin as the compound, how does the IC50 (MVEV NS2B-NS3) read?
The IC50 was ~8000 nM and 7800 nM.

And the Ki (WNV NS3 protease; WNV NS3 protease)?
Its Ki is 162 nM.

What about the Ki (WNV NS3 protease; non-cleavable form of WNV NS2B-NS3pro) of the same compound?
Its Ki is 26 nM.

What about the IC50 (JEV NS2B(H)-NS3pro [5]) of the same compound?
The IC50 was 4130 ± 170 nM.

And the Ki (DEN2 NS3 protease)?
Its Ki is 26 nM.

Reference: paper PMC3352935, “Enzymatic Analysis of Recombinant Japanese Encephalitis Virus NS2B(H)-NS3pro Protease with Fluorogenic Model Peptide Substrates” (PLoS ONE, 2012)
